Legend:
[1] = target: human IRAK-4 (Homo sapiens (Human), UniProt Q9NWZ3); assay: Measurement of human IRAK-4 inhibitory activity (TR-FRET, peptide substrate phosphorylation, 10 μM ATP); format: biochemical; settings: 1 nM IRAK-4, 10 μM ATP, 23° C., 30 minutes; average values
Method in brief: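 With 1 nM IRAK-4, 0.5 μM biotinylated peptide and 10 μM ATP, compound incubated 30 min at 23 °C in 50 mM HEPES pH 7.2 with Mg2+/Mn2+. Stopped with EDTA plus europium-cryptate anti-phosphopeptide antibody and streptavidin-XL665, 60 min at 23 °C. Activity taken as the 665/620 nm TR-FRET ratio.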

[2] = test system: LPS-stimulated TNFα production in THP-1 cells; assay: LPS-stimulated TNFα production inhibition test using human acute monocytic leukemia cell strain THP-1; format: cell-based; settings: Homo sapiens, LPS 2.5 ng/mL, average values
Method in brief: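 Readout was HTRF-measured TNFα in supernatants, calibrated against a standard curve, after LPS challenge (2.5 ng/mL final, 4 h) of THP-1 cells pretreated 1 h at 37 °C with compound. Unstimulated wells defined 100% suppression and vehicle wells 0%. IC50 was fitted with a 4-parameter logistic model.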

human IRAK-4, sequence (Q9NWZ3 whole entry): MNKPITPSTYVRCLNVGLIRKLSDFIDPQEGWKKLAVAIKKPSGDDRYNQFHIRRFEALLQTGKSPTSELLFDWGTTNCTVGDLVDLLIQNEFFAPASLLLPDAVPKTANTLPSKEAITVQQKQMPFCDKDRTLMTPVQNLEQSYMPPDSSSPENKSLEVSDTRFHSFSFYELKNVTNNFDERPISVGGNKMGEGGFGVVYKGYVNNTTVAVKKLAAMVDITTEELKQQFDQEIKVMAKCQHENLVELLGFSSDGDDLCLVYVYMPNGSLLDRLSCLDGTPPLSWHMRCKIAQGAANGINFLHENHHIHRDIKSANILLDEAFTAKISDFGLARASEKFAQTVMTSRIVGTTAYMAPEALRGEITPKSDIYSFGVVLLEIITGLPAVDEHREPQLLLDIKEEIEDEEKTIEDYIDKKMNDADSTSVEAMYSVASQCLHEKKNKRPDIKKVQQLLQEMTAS

| Structure (SMILES) | IC50 [1] [nM] | IC50 ([2]; THP-1, 4 h) [nM] | IC50 ([2]; 4 hours) [nM] |
| --- | --- | --- | --- |
| Cc1oncc1C(=O)N1CCN([C@H]2C[C@@H](C(=O)Nc3nc4ccc(-c5cnc(CO[C@H]6CCC[C@@H]6O)nc5)cc4s3)C2)[C@@H](C)C1 [b-04-29] | 1.6 | 55 |  |
| Cc1nc(C(=O)N2CCN([C@H]3C[C@@H](C(=O)Nc4cc5cc(-c6cnc(CO[C@H]7CCC[C@@H]7O)nc6)ccn5n4)C3)[C@@H](C)C2)co1 [e-02-24] | 1.27 | 117 |  |
| COCC(=O)N1CCN([C@H]2C[C@@H](C(=O)Nc3nc4ccc(-c5cnc(CO[C@H]6CCC[C@@H]6O)nc5)c(OC)c4s3)C2)[C@@H](C)C1 [c-03-03] | 2.54 | 230 |  |
| CC(C)(C)OC(=O)N1CC2(CC(C(=O)Nc3nc4ccc(-c5cnc(CO[C@H]6CCC[C@@H]6O)nc5)cc4s3)C2)C1 [d-01-04] | 6.39 | 178 |  |
| C[C@H]1CN(C(=O)c2cccnc2)CCN1[C@H]1C[C@@H](C(=O)Nc2cc3cc(-c4cnc(CO[C@H]5CCC[C@@H]5O)nc4)ccn3n2)C1 [e-02-02] | 1.38 | 123 |  |
| C[C@]1(F)C[C@H](C(=O)Nc2nc3ccc(-c4cnc(CO[C@H]5CCC[C@@H]5O)nc4)cc3s2)C1 [d-01-08] | 2.89 | 202 |  |
| O=C(Nc1nc2ccc(-c3cnc(CO[C@H]4CCC[C@@H]4O)nc3)cc2s1)C1CC2(C1)CC(F)(F)C2 [d-01-06] | 3.62 | 174 |  |
| CC(C)C[C@H]1COCCN1C1CC(C(=O)Nc2nc3ccc(-c4cnc(CO[C@H]5CCC[C@@H]5O)nc4)cc3s2)C1 (some centres unmarked) [b-02-67] | 2.36 | 91 |  |
| CN(C1CC1)C1CC(C(=O)Nc2nc3ccc(-c4cnc(CO[C@H]5CCC[C@@H]5O)nc4)cc3s2)C1 (some centres unmarked) [b-03-03] | 1.43 | 126 |  |
| C[C@H]1CN(C(=O)c2ccncc2)CCN1[C@H]1C[C@@H](C(=O)Nc2nc3ccc(-c4cnc(CO[C@H]5CCC[C@@H]5O)nc4)cc3s2)C1 [b-04-13] | 1.7 | 27 |  |
| O=C(Nc1nc2ccc(-c3cnc(CO[C@H]4CCC[C@@H]4O)nc3)cc2s1)C1CC(N2CC3CC(C2)O3)C1 (some centres unmarked) [b-02-09] | 2.42 |  | 142 |
| COCCOCC(=O)N1CCN([C@H]2C[C@@H](C(=O)Nc3nc4ccc(-c5cnc(CO[C@H]6CCC[C@@H]6O)nc5)cc4s3)C2)[C@@H](C)C1 [b-04-06] | 2.37 | 64 |  |
| C[C@H]1CN(C(=O)[C@H]2CCOC2)CCN1[C@H]1C[C@@H](C(=O)Nc2nc3ccc(-c4cnc(CO[C@H]5CCC[C@@H]5O)nc4)cc3s2)C1 [b-04-23] | 1.41 | 54 |  |
| O=C(Nc1nc2ccc(-c3cnc(CO[C@H]4CCC[C@@H]4O)nc3)cc2s1)C1CC(CN2CC(F)C2)C1 (stereo partly drawn) [d-05-02] | 2.1 | 223 |  |
| O=C(Nc1nc2ccc(-c3cnc(CO[C@H]4CCC[C@@H]4O)nc3)cc2s1)C1CC(NC2(C(F)(F)F)CCC2)C1 (some centres unmarked) [b-02-79] | 3.39 | 138 |  |
| CCCOCc1ncc(-c2ccn3nc(NC(=O)[C@H]4C[C@@H](N5CCN(C(=O)C6CCOCC6)C[C@@H]5CC)C4)cc3c2)cn1 [e-02-19] | 1.19 | 191 |  |
| O=C(Nc1nc2ccc(-c3cnc(COC4CC(F)(F)C4)nc3)cc2s1)C1CC1 [a-04-04] | 2.32 | 444 |  |
| O=C(Nc1nc2ccc(-c3cnc(CO[C@H]4CCC[C@@H]4O)nc3)cc2s1)C1CC(N2CCOCC23CCC3)C1 (some centres unmarked) [b-02-33] | 1.63 | 51 |  |
| COc1ccc(C(=O)N2CCN([C@H]3C[C@@H](C(=O)Nc4nc5ccc(-c6cnc(CO[C@H]7CCC[C@@H]7O)nc6)cc5s4)C3)[C@@H](C)C2)cn1 [b-04-45] | 0.66 | 15 |  |
| COc1c(-c2cnc(CO[C@H]3CCC[C@@H]3O)nc2)ccc2nc(NC(=O)C3CC34CC4)sc12 (some centres unmarked) [c-02-06] | 2.13 | 194 |  |
| Cc1cc(C(=O)N2CCN([C@H]3C[C@@H](C(=O)Nc4nc5ccc(-c6cnc(CO[C@H]7CCC[C@@H]7O)nc6)cc5s4)C3)[C@@H](C)C2)ccn1 [b-04-02, (1R,3s)-N-(6-(2-((((1S,2S)-2-Hydroxycyclopentyl)oxy)methyl)pyrimidin-5-yl)benzo[d]thiazol-2-yl)-3-((S)-2-methyl-4-(2-methylisonicotinoyl)piperazin-1-yl)cyclobutane-1-carboxamide] | 1.4 | 21 |  |
| COc1c(-c2cnc(CO[C@H]3CCC[C@@H]3O)nc2)ccc2nc(NC(=O)[C@@H]3C[C@H]3C)sc12 [c-02-01] | 3.7 | 110 |  |

| Structure (SMILES) | IC50 [1] [nM] | IC50 ([2]; THP-1, 4 h) [nM] | IC50 ([2]; 4 hours) [nM] |
| --- | --- | --- | --- |
| Cc1noc(C)c1C(=O)N1CCN([C@H]2C[C@@H](C(=O)Nc3nc4ccc(-c5cnc(CO[C@H]6CCC[C@@H]6O)nc5)cc4s3)C2)[C@@H](C)C1 [b-04-27] | 1.6 | 108 |  |
| CCCOCc1ncc(-c2ccn3nc(NC(=O)[C@H]4C[C@@H](N5CCN(C(=O)c6ccnc(C)c6)C[C@@H]5C)C4)cc3c2)cn1 [e-02-14] | 1.64 | 139 |  |
| COCCO[C@H]1C[C@@H](C(=O)Nc2nc3ccc(-c4cnc(CO[C@H]5CCC[C@@H]5O)nc4)cc3s2)C1 [d-04-02] | 2.48 | 207 |  |
| O=C(Nc1nc2ccc(-c3cnc(CO[C@H]4CCC[C@@H]4O)nc3)cc2s1)C1CC(N2CCOCC23CC3)C1 (some centres unmarked) [b-02-37] | 2.22 | 94 |  |
| CC(=O)N1CCN(C2CC(C(=O)Nc3nc4ccc(-c5cnc(CO[C@H]6CCC[C@@H]6O)nc5)cc4s3)C2)CC1 (some centres unmarked) [b-02-38] | 2.98 | 150 |  |
| CN(C1CC(C(=O)Nc2nc3ccc(-c4cnc(CO[C@H]5CCC[C@@H]5O)nc4)cc3s2)C1)C1CC(F)(F)C1 (some centres unmarked) [b-03-08] | 2.68 | 127 |  |
| O=C(Nc1nc2ccc(-c3cnc(CO[C@H]4CCC[C@@H]4O)nc3)cc2s1)C1CC(N2CCC[C@@H](F)C2)C1 (some centres unmarked) [b-02-16] | 2.01 | 107 |  |
| C[C@@H]1CCCN1C1CC(C(=O)Nc2nc3ccc(-c4cnc(CO[C@H]5CCC[C@@H]5O)nc4)cc3s2)C1 (some centres unmarked) [b-02-27] | 1.48 | 159 |  |
| Cc1cc(C(=O)N2CCN([C@H]3C[C@@H](C(=O)Nc4nc5ccc(-c6cnc(CO[C@H]7CCC[C@@H]7O)nc6)cc5s4)C3)[C@@H](C)C2)cc(C)n1 [b-04-40] | 0.89 | 25 |  |
| C[C@H]1CN(C(=O)c2ccc(Cl)cn2)CCN1[C@H]1C[C@@H](C(=O)Nc2nc3ccc(-c4cnc(CO[C@H]5CCC[C@@H]5O)nc4)cc3s2)C1 [b-04-37] | 0.81 | 35 |  |
| CN(C1CC(C(=O)Nc2nc3ccc(-c4cnc(CO[C@H]5CCC[C@@H]5O)nc4)cc3s2)C1)C12CC(C#N)(C1)C2 (some centres unmarked) [b-03-06] | 2.8 | 116 |  |
| CCCOCc1ncc(-c2ccc3nc(NC(=O)[C@H]4C[C@@H](N5CCN(C(=O)c6ccccn6)C[C@@H]5C)C4)sc3c2)cn1 [b-04-24] | 0.76 | 95 |  |
| C[C@H]1CN(C(=O)c2cncnc2)CCN1[C@H]1C[C@@H](C(=O)Nc2nc3ccc(-c4cnc(CO[C@H]5CCC[C@@H]5O)nc4)cc3s2)C1 [b-04-38] | 0.85 | 87 |  |
| C[C@H]1CN(C(=O)C2CCCO2)CCN1[C@H]1C[C@@H](C(=O)Nc2nc3ccc(-c4cnc(CO[C@H]5CCC[C@@H]5O)nc4)cc3s2)C1 (some centres unmarked) [b-04-05] | 2.85 | 54 |  |
| CC1COC2(CCCC2)CN1C1CC(C(=O)Nc2nc3ccc(-c4cnc(CO[C@H]5CCC[C@@H]5O)nc4)cc3s2)C1 (some centres unmarked) [b-02-82] | 4.02 | 131 |  |
| C[C@@H]1CN(C2CC(C(=O)Nc3nc4ccc(-c5cnc(CO[C@H]6CCC[C@@H]6O)nc5)cc4s3)C2)CCO1 (some centres unmarked) [b-02-08] | 2.76 | 113 |  |
| COc1ccc([C@@H]2CC2C(=O)Nc2nc3ccc(-c4cnc(CO[C@H]5CCC[C@@H]5O)nc4)cc3s2)cc1 (some centres unmarked) [a-01-10] | 12.1 | 678 |  |
| CCCOCc1ncc(-c2ccc3nc(NC(=O)[C@H]4C[C@@H](N5CCN(C(=O)c6ccc(C(F)(F)F)cn6)C[C@@H]5C)C4)sc3c2)cn1 [b-04-26] | 1.22 | 86 |  |
| CC[C@H]1CN(C(=O)c2ccccn2)CCN1C1CC(C(=O)Nc2nc3ccc(-c4cnc(CO[C@H]5CCC[C@@H]5O)nc4)cc3s2)C1 (some centres unmarked) [b-04-16] | 1.51 | 23 |  |
| CN1CCN(C2CC(C(=O)Nc3nc4ccc(-c5cnc(CO[C@H]6CCC[C@@H]6O)nc5)cc4s3)C2)CC(F)(F)C1 (some centres unmarked) [b-02-41] | 2.86 | 160 |  |
| CCCOCc1ncc(-c2ccc3nc(NC(=O)[C@H]4C[C@@H](N5CCN(C(=O)c6cc(C)ccn6)C[C@@H]5C)C4)sc3c2)cn1 [b-04-42] | 0.49 | 64 |  |
